The results in this text go back to US8846704B2, “Thiopyrimidine-based compounds and uses thereof” (YM Biosciences Austraila Pty Ltd, priority 2007, dated 2014).

A word on the inhibition: it is the change of the read-out against control, counted positive when it falls.

Common to all, as to type: biochemical
Test [1] addresses T1, Human hemopoietic cell protein-tyrosine kinase (HCK) (Homo sapiens, UniProt P08631).
T1 construct: GST (N); made in house; host or cells: Sf9 insect cells (baculovirus)
Description: Alphascreen tyrosine kinase enzyme assay, HCK kinase domain. The following applies: read-out: FMS, FLT3, or HCK IC50_nM (HCK). As to the method: (§1) For screening purposes, compounds (in 100% DMSO) were warmed at 37 degrees for at least 20 minutes before use. A […] stock was initially made in assay buffer, where the final concentration of DMSO was 0.3%. The stocks were then diluted in 384 well Optiplates (Packard) where the final concentration of the compound was […].
The kinase domain of Human hemopoietic cell protein-tyrosine kinase (HCK) between L212 and P505 (accession number M16592) was amplified from U937 mRNA using the polymerase chain reaction.
The PCR product was cloned into the pDest20 destination vector (Gibco). The plasmid was then transformed into competent […] cells (Gibco) to produce a HCK bacmid. The recombinant baculovirus was prepared via Sf9 insect cell transfection with bacmid DNA.
Baculovirus preparations from each of the constructs were infected into either one or five liters of Sf9 cells (Invitrogen) grown in SF-900 medium (Invitrogen) to a cell density of approximately 1-2×10^6 cells/ml. Cells were infected with virus at a MOI of 0.8-3.0. Cells were harvested and lysed. Tyrosine kinase domains were purified by affinity chromatography on a glutathione-agarose column (Scientifix Pty. Ltd. catalog #: GSH-200). […]

Test [2] concerns the target T2, human CSF1-R (FMS) (Homo sapiens, UniProt P07333).
T2 construct: from codon I553 to Q961; GST (N); made in house; host or cells: Sf9 insect cells (baculovirus)
T2 sequence (P07333 553-961): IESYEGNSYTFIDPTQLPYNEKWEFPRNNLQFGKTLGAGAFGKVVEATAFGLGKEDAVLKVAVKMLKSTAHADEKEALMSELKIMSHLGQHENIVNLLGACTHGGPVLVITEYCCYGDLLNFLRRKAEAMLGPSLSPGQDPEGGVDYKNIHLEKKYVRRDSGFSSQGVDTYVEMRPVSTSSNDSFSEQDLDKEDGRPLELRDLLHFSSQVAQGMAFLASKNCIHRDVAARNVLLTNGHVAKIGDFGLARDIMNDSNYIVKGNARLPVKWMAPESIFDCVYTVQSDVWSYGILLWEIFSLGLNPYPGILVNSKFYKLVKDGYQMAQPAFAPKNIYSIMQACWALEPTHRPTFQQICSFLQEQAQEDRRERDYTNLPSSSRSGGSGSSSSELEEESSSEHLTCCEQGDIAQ
Briefly: Alphascreen tyrosine kinase enzyme assay, CSF-1R (FMS) kinase domain. The following applies: read-out: FMS, FLT3, or HCK IC50_nM (FMS). How it is done: as §1
The kinase domain of human CSF1-R from codon I553 to Q961 was cloned into the pDest20 expression vector (Invitrogen). The CSF1-R plasmid was then transformed into competent DH10Bac cells (Gibco), and the recombinant baculovirus produced prepared for transfection into Sf9 insect cells.
(§2) Baculovirus preparations from each of the constructs were infected into either one or five liters of Sf9 cells (Invitrogen) grown in SF-900 medium (Invitrogen) to a cell density of approximately 1-2×10^6 cells/ml. Cells were infected with virus at a MOI of 0.8-3.0. Cells were harvested and lysed. Tyrosine kinase domains were purified by affinity chromatography on a glutathione-agarose column (Scientifix Pty. Ltd. catalog #: GSH-200).
(§3) Kinase assays were performed in 384 well Optiplates (Packard) using an Alphascreen Protein Tyrosine Kinase PY100 detection kit The compounds were pre-incubated with affinity purified PTK domain in the presence of phosphotyrosine assay buffer (10 mM HEPES, pH 7.5, 100 mM MgCl2, 25 mM NaCl, […] and 0.1% Tween 20) for 20 minutes. The compounds were then incubated with substrate in the presence of ATP. The substrate used was susbtrate-1 with the sequence biotin-EGPWLEEEEEAYGWMDF-NH2 [SEQ. ID. NO. 13] (final concentration […]). For HCK 80 μm ATP was used and incubated for 60 minutes. Alphascreen phosphotyrosine acceptor beads followed by streptavidin donor beads at a concentration of 1/100 in stop buffer were added to each well under subdued light and incubated for 2-3 hours., The Alphascreen plates were read on a Packard Fusion Alpha instrument.
(Alpha assays give light when donor and acceptor beads are brought close together.)

The target in test [3] is T3, Blk(m) (Mus musculus, UniProt P16277).
T3 construct: purchased Upstate Biotechnology (Dundee, UK), KinaseProfiler service
T3 sequence (P16277 whole entry): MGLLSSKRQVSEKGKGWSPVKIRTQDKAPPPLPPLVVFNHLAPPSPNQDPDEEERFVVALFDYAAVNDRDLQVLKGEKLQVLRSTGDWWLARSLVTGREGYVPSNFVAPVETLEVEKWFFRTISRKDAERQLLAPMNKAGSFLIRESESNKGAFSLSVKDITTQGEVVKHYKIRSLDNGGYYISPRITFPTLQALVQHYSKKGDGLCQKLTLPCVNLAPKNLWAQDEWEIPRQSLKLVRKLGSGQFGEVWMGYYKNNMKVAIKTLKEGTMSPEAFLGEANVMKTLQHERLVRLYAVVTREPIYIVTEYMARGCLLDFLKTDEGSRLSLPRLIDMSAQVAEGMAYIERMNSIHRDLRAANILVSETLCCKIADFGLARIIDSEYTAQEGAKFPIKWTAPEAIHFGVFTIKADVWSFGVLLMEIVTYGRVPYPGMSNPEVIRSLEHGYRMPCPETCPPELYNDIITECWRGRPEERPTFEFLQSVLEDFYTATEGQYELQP
Description: Upstate KinaseProfiler enzyme assay, Blk. The settings on record: 500 nM compound; read-out: Percent inhibition at 500 nM Blk(m). How it is done: (§4) Further enzyme assays were conducted at Upstate Biotechnology (Dundee, UK) in the KinaseProfiler™ Assay system.
(§5) The general protocol is as follows. All kinases are pre-diluted to a 10× working concentration prior to addition into the assay. The composition of the dilution buffer for the kinases is 20 mM MOPS pH 7.0, 1 mM EDTA, 0.1% β-mercaptoethanol, 0.01% Brij-35, 5% glycerol, 1 mg/ml BSA. All substrates are dissolved and diluted to working stocks in de-ionised water.

Test [4] addresses T4, Bmx(h) (Homo sapiens, UniProt P51813).
T4 construct: purchased Upstate Biotechnology (Dundee, UK), KinaseProfiler service
T4 sequence (P51813 1-675): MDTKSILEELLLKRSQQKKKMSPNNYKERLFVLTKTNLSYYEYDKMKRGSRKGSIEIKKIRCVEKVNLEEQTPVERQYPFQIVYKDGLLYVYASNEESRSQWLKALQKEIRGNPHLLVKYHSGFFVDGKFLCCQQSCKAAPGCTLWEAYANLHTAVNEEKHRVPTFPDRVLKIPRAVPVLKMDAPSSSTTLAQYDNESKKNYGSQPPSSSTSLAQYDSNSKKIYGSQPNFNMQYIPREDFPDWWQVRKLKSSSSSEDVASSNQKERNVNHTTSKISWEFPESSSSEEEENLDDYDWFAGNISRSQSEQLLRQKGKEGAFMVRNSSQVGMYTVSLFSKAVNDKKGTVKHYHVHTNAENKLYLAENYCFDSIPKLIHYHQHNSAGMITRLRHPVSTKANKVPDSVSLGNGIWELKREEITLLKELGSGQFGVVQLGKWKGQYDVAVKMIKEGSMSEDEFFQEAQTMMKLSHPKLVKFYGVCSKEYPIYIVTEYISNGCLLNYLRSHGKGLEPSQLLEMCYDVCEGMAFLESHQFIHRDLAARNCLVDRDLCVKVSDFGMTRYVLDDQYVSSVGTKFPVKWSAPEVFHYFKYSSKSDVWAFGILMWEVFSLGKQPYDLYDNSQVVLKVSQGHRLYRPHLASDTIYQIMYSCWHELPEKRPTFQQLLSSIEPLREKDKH
Description: Upstate KinaseProfiler enzyme assay, Bmx. The settings on record: 500 nM compound; read-out: Percent inhibition at 500 nM Bmx(h). As to the method:
as §4, §5

Test [5] concerns the target T5, KDR(h) (Homo sapiens, UniProt P35968).
T5 construct: purchased Upstate Biotechnology (Dundee, UK), KinaseProfiler service
Briefly: Upstate KinaseProfiler enzyme assay, KDR. The settings on record: 500 nM compound; read-out: Percent inhibition at 500 nM KDR(h). How it is done:
as §4, §5

The target in test [6] is T6, BTK(h) (Homo sapiens, UniProt Q06187).
T6 construct: purchased Upstate Biotechnology (Dundee, UK), KinaseProfiler service
T6 sequence (Q06187 whole entry): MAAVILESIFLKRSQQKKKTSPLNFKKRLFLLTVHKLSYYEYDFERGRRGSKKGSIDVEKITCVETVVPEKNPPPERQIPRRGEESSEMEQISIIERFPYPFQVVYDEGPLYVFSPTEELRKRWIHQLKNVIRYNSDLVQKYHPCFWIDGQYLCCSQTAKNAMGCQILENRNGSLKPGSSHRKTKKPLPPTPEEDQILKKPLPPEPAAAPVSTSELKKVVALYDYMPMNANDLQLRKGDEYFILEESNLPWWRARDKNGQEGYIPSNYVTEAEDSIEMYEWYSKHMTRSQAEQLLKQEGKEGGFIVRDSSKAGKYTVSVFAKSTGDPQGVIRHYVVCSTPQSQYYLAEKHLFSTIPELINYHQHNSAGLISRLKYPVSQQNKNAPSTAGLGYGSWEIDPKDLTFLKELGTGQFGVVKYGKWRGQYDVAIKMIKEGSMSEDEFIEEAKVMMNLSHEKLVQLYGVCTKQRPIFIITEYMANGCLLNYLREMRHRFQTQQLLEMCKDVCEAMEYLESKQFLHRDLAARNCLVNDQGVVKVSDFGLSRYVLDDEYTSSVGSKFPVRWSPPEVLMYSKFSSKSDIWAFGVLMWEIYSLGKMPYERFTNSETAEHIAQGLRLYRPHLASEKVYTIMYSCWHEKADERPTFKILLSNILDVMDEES
Description: Upstate KinaseProfiler enzyme assay, BTK. The settings on record: 500 nM compound; read-out: Percent inhibition at 500 nM BTK(h). How it is done: as §4, §5

Test [7] deals with T7, Flt 4(h) (Homo sapiens, UniProt P35916).
T7 construct: purchased Upstate Biotechnology (Dundee, UK), KinaseProfiler service
Description: Upstate KinaseProfiler enzyme assay, Flt 4. The settings on record: 500 nM compound; read-out: Percent inhibition at 500 nM Flt 4(h). How it is done:
as §4, §5

Test [8] addresses T8, human JAK2 (Homo sapiens, UniProt O60674).
T8 construct: The kinase domain of human JAK2 was amplified; GST (N); made in house; host or cells: Sf9 insect cells (baculovirus)
Briefly: Alphascreen tyrosine kinase enzyme assay, JAK2 kinase domain. The following applies: read-out: JAK2 IC50_nM. How it is done: as §1
The kinase domain of human JAK2 was amplified from U937mRNA using the polymerase chain reaction with the following primers: […]
The JAK2 PCR products were cloned into the pDest20 destination vector (Gibco). The JAK2 plasmid was then transformed into competent DH10Bac cells (Gibco), and the recombinant baculovirus was prepared via Sf9 insect cell transfection.
as §2, §3

Test [9] concerns the target T9, human JAK3 (Homo sapiens, UniProt P52333).
T9 construct: The kinase domain of human JAK3 was amplified; GST (N); made in house; host or cells: Sf9 insect cells (baculovirus)
Briefly: Alphascreen tyrosine kinase enzyme assay, JAK3 kinase domain. The following applies: read-out: JAK3 IC50_nM. How it is done:
as §1
The kinase domain of human JAK3 was amplified from U937mRNA using the polymerase chain reaction with the following primers: […]
The JAK3 PCR products were cloned into the pDest20 destination expression vector (Gibco). The JAK3 plasmid was then transformed into competent DH10Bac cells (Gibco), and the recombinant baculovirus was prepared via Sf9 insect cell transfection.
as §2, §3

Test [10] addresses T10, Flt 1(h) (Homo sapiens, UniProt P17948).
T10 construct: purchased Upstate Biotechnology (Dundee, UK), KinaseProfiler service
Briefly: Upstate KinaseProfiler enzyme assay, Flt 1. The following applies: 500 nM compound; read-out: Percent inhibition at 500 nM Flt 1(h). How it is done:
as §4, §5

A value given as a limit tells only on which side of the number the result lay.

T5 sequence (P35968 20-1356): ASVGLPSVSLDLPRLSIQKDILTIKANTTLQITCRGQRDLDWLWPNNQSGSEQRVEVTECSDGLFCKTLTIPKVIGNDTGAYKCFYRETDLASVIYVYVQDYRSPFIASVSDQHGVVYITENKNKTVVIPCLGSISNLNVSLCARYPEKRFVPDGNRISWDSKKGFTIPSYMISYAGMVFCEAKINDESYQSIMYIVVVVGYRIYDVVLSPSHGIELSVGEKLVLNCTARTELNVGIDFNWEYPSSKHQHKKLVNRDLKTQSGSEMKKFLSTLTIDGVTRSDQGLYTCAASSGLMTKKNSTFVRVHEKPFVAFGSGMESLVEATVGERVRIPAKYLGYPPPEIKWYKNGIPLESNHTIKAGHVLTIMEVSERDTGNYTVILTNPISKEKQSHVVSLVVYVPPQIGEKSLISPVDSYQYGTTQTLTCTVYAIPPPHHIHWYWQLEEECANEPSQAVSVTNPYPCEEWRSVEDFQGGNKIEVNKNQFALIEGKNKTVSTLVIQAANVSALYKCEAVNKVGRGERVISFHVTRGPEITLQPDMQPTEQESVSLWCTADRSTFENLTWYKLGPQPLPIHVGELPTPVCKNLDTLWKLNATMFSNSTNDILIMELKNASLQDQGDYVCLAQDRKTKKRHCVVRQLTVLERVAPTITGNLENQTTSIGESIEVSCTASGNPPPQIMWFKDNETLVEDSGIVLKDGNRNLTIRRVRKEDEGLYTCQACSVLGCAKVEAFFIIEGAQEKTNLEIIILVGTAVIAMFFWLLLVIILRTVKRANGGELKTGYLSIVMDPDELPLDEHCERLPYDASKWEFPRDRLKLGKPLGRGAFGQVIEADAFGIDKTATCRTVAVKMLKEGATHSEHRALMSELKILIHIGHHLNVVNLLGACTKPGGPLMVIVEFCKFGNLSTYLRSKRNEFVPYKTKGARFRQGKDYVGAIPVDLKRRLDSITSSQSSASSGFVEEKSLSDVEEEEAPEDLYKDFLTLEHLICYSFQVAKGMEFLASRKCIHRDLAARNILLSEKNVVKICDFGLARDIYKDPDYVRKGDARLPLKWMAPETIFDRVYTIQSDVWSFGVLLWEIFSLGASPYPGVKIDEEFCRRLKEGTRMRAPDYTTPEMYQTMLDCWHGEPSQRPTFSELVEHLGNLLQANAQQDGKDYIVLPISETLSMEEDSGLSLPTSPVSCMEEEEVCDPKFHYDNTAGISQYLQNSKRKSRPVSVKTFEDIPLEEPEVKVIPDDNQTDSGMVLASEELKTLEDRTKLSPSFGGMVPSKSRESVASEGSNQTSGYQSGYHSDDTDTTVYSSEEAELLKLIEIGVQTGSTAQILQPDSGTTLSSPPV
T9 sequence (P52333 822-1111 limits assumed): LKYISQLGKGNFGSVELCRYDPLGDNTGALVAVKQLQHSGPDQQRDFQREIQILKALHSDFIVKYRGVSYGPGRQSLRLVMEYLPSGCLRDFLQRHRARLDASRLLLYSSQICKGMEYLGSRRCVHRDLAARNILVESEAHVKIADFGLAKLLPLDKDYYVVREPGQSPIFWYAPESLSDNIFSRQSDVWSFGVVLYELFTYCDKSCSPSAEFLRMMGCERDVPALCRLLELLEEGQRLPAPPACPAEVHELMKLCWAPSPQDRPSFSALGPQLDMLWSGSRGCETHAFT
T8 sequence (O60674 849-1124 limits assumed): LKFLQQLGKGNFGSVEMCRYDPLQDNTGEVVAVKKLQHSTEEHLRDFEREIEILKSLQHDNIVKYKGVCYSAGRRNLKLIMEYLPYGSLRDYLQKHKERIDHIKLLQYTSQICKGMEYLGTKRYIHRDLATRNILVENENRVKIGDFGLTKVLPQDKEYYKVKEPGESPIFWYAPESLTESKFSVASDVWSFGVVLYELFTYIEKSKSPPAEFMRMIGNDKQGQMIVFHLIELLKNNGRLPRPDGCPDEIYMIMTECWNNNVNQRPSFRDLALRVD
T10 sequence (P17948 27-1338): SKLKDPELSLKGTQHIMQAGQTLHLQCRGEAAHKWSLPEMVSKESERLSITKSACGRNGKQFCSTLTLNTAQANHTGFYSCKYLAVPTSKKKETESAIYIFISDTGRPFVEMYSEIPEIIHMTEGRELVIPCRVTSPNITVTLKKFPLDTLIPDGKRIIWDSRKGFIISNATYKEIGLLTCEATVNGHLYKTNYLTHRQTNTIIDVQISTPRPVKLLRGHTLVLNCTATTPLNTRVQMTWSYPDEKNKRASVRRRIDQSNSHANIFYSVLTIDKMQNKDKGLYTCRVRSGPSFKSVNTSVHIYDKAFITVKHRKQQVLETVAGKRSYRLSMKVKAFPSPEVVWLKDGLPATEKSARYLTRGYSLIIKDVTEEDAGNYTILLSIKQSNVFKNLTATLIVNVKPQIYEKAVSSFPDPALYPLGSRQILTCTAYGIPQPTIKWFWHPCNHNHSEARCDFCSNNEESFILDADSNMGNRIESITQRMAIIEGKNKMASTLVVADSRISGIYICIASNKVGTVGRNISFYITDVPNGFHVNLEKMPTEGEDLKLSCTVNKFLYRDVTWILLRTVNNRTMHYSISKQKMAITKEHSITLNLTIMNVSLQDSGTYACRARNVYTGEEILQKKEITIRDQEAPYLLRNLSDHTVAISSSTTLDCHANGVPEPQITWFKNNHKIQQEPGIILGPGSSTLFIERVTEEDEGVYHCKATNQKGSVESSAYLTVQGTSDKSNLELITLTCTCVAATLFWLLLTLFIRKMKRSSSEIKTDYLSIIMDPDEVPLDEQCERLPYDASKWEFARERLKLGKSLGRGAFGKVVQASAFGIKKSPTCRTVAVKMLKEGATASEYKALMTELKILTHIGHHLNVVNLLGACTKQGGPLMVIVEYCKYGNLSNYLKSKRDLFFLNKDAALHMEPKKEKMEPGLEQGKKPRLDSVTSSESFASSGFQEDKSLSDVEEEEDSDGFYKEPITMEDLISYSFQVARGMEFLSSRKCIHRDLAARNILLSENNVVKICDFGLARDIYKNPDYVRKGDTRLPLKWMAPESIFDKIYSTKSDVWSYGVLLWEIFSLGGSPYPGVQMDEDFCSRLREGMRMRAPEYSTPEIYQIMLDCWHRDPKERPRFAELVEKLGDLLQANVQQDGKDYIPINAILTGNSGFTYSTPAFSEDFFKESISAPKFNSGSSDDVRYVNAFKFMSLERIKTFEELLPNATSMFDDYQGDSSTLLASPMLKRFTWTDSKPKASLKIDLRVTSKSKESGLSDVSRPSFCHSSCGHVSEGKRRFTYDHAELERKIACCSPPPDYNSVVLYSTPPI
T1 sequence (P08631 233-526): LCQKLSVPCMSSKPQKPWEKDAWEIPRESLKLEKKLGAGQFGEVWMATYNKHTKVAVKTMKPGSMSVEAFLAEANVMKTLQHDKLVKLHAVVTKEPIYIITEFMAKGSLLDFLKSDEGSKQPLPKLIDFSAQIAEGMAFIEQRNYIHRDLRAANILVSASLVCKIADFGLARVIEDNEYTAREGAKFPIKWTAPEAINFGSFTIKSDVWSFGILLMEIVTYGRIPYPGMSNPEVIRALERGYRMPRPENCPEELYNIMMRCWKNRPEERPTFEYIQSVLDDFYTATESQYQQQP

`Oc1cccc(Sc2ccnc(Nc3ccc(N4CCOCC4)cc3)n2)c1` [Compound 38, 3-(2-(4-morpholinophenylao)pyrimidin-4-ylthio)phenol]: the IC50 in test [1] and in test [2] was < 500 nM throughout.
With `C=CC(=O)Nc1ccc(Sc2ccnc(Nc3cc(OC)c(OC)c(OC)c3)n2)cc1` [Compound 71, N-(4-(2-(3,4,5-trimethoxyphenylao)pyrimidin-4-ylthio)phenyl)acrylamide], the inhibition at 0.5 µM in test [3] came to 49%; in test [4], 36%; in [5], 90%; in test [6], 27%.
Consider `C=C(C)C(=O)Nc1cccc(Sc2ccnc(Nc3ccc(N4CCOCC4)cc3)n2)c1` [Compound 115, N-(3-(2-(4-morpholinophenylao)pyrimidin-4-ylthio)phenyl)methacrylamide], for which the inhibition at 0.5 µM in test [3], in [4], in test [5] and in test [6] was 100% each time.
As for `C=CC(=O)N1CCCc2cc(Sc3nc(Nc4ccc(N5CCOCC5)cc4)ncc3C)ccc21` [Compound 168, 1-(6-(5-methyl-2-(4-morpholinophenylao)pyrimidin-4-ylthio)-3,4-dihydroquinolin-1(2H)-yl)prop-2-en-1-one], the inhibition at 0.5 µM came to 98% in [3]; 99% in test [7]; 92% in test [4]; 96% in [5]; 66% in test [10]. For the same compound, the IC50 was > 1000 nM in test [8] and < 100 nM in test [9].
On to `C=CC(=O)N1CCc2cc(Sc3nc(Nc4ccc(N5CCOCC5)cc4)ncc3C)ccc21` [Compound 170, 1-(5-(5-methyl-2-(4-morpholinophenylao)pyrimidin-4-ylthio)indolin-1-yl)prop-2-en-1-one], for which the inhibition at 0.5 µM worked out at 96% in test [3]; 99% in test [7]; 97% in test [4]; 97% in [5]; 74% in [10]. Also, the IC50 in test [8] was > 1000 nM; in test [9], < 100 nM.
In the case of `O=C(CCNc1ccccc1)Nc1ccc(Sc2ccnc(Nc3ccccc3)n2)cc1` [Compound 351, 3-(phenylao)-N-(4-(2-(phenylao)pyrimidin-4-ylthio)phenyl)propanamide], the inhibition at 0.5 µM in test [3], in test [4], in [5] and in test [6] was 100% throughout.
